Laboratory results: patent publication US20120149708A1, “MODULATORS OF VIRAL TRANSCRIPTION, AND METHODS AND COMPOSITIONS THEREWITH” (George Mason University, priority 2010, published 2012)

Legend:
[1] = test system: infected ACH2, J1.1, OM10.1, U1 cells; experiment: MTT assay, infected cells; type: cell-based; conditions: 50 nm and 10 μM
Protocol: FIGS. 1 and 2 show screening results of CR8 derivatives on Tat-dependent transcription HIV-1 LTR. […] TZM-bl cells were transfected with 1 ug of Tat and treated the next day with DMSO, or the indicated CR8 derivative compounds at 50 nm. 48 hrs-post drug treatment, luciferase activity of the firefly luciferase was measured with the BrightGlo Luciferase Assay and luminescence was read from a 96 well plate on an EG&G Berthold luminometer. Assays were performed in triplicate, average and standard deviations are shown.
Quantitative MTT assays were performed (FIG. 2), to further validate the cell growth inhibitory activity of certain Formula I compounds. In this study, cultured, infected ACH2, J1.1, OM10.1, U1 and uninfected CEM, Jurkat T-cells, and U937 cells were brought in contact with Formula I compounds CR8, MRT-033, and BJFP1154 (CR8#13). Cell growth inhibition study was performed at two different concentrations of the inventive compounds, a low concentration of 50 nm, and high concentration of 10 μM.

HIV-1 = experiment: Viral inhibition (HIV-1); type: cell-based; conditions: versus Cyc202
HIV-1 LTR = experiment: ChIP assay on HIV-1 LTR in TSA treated TZM-bl cells; type: cell-based; conditions: TZM-bl after TSA treatment
Protocol: Primers specific for the HIV-1 LTR were used to amplify DNA that was precipitated with each antibody. Lane 1 indicates basal levels of repressive markers on the HIV-1 LTR.
TZM-bl cells were treated with TSA for 7 days and processed for ChIP. For ChIP, approximately 5×10^6 cells were used per IP. ChIP assays were performed as previously described. PCR was performed using 0.1 μM of HIV-1 LTR primers (Klase et al, 2007; Guendel et al, 2009; Easley et al, 2010).
(§1) To observe the effect of drug on heterochrmatin formation, the present inventor used a ChIP assay. Briefly, TZM-bl cells were treated with TSA (FIGS. 16 and 17), and then treated with CR8#13.

integrated HIV-1-Luc = experiment: Luciferase assay in TSA treated TZM-bl cells; type: cell-based; conditions: TSA and CR8#13 versus TSA alone
Protocol: Luciferase activity increased with TSA treatment and then decreased post-CR8#13 treatment.
as §1

[2] = test system: CIITA, IL-8, CAD, MCL-1, Cyclin D1, and PBX-1; type: cell-based
Protocol: 293T cells were treated with three different concentrations of CR8#13 (20 nm, 50 nm, and 200 nm). Cells were processed 48 hrs-post treatment for RT-PCR. Effector cdk9 genes such as CIITA, IL-8, CAD, MCL-1, Cyclin D1, and PBX-1 were used in the RT-PCR.
For mRNA analysis of cdk9 related genes following drug treatments, total RNA was isolated from cells using Trizol (Invitrogen) according to the manufacturer's protocol. A total of 1 μg of RNA from the RNA fraction was treated with 0.25mg/ml DNase I for 60 min, followed by heat inactivation at 65° C. for 15 min. A total of 1 μg of total RNA was used to generate cDNA with the iScript cDNA Synthesis kit (Bio-Rad) using oligo-dT reverse primers.
A determination whether inhibition cdk9 by compounds of the present invention altered the responsiveness of cdk9 dependent cellular genes, was made by the present inventor by testing the effect of CR8#13 (BJFP1154), of viral transcriptional activity utilizing a known set of cellular and viral genes.

3′TAR and 5′TAR microRNA = experiment: Poly-A RT-PCR of TAR microRNA in ACH2 cells; type: cell-based, HIV-1; conditions: CR8#13 100 nm, 48 hrs
Protocol: RNA was extracted 48 hrs-post drug treatment. 500 ng of RNA from the microRNA-enriched fraction was used to generate cDNA using the Quantimir kit (SBI). RT reactions are performed followed by PCR in which a universal reverse primer is provided by the manufacturer. Specific microRNA forward primers are identical in sequence to the microRNA of interest. PCR products corresponding to the amplified microRNAs were resolved in a 3.5% (w/v) agarose gel. The PCR products are at around 67 bp as compared with the Fermentas 1 kb DNA Plus Ladder. Increased amounts of 3′ and 5′ TAR microRNA were observed post drug treatment.
For poly-A RT-PCR detection of microRNAs, 500 ng of RNA from the microRNA-enriched fraction was used to generate cDNA using the Quantimir kit (SBI) according to the manufacturer's protocol. Briefly, small RNA species are poly-adenylated and then reverse transcription reactions are performed with a company-provided RT primer. For PCR, a universal reverse primer is provided by the manufacturer. Specific microRNA forward primers are identical in sequence to the microRNA of interest. PCR products corresponding to the amplified microRNAs were separated in a 3.5% (w/v) agarose gel and quantified using the Kodak 1D software. […]

Structure (SMILES) | cell killing of infected cells (MTT) [1] | potency relative to Cyc202 (viral inhibition) (HIV-1) | recruitment of HDAC1, Ago2, Suv39H1 to the HIV-1 promoter (ChIP) (HIV-1 LTR) | Luciferase activity (integrated HIV-1-Luc) | transcription of cdk9 responsive genes [2] | 5′TAR microRNA levels (3′TAR and 5′TAR microRNA)
CC[C@@H](CO)Nc1nc(NCc2ccc(-c3ccccn3)cc2)c2ncn(C(C)C)c2n1 [CR8] | significant cell killing of infected cells over uninfected cells | roughly 25 times | – | – | – | –
CC(C)c1cnn2c(NCc3ccc(-c4ccccn4)cc3)nc(NC[C@H](O)CO)nc12.O=C(O)/C=C/C(=O)O [BJFP1154] | – | – | re-recruitment of heterochromatin markers | decrease Luciferase activity | did not inhibit transcription of genes that are cdk9 responsive | increase in the 5′TAR microRNA levels
